As usually defined, the IC50 is the concentration at which inhibition is half-maximal. Read a high IC50 as lower potency.

5 compounds from ChEMBL document CHEMBL3390838, “Synthesis, anti-proliferative and proapoptotic activity of novel oleanolic acid azaheterocyclic derivatives” (Medchemcomm, 2012) can be followed below.

The subject of one data set is K562. The data set is described as follows: Cytotoxicity against human K562 cells after 72 hrs by MTT assay. The data set is classed as functional, cell-based. The note with it: K562, 72 h. A general note: Tetrazolium assays rely on reduction of a dye to a coloured formazan, in cell work by metabolically active cells.
Data set [1] can be described thus: Cytotoxicity against human Bel7404 cells after 72 hrs by MTT assay. The data set is classed as functional, cell-based. The note with it: BEL-7404, 72 h.
Data set [2] in a line: Cytotoxicity against human HL60 cells after 72 hrs by MTT assay. Type of data set: functional, cell-based. Conditions: HL-60, 72 h.
The next data set concerns MDA-MB-231. Kind of data set: Cytotoxicity against human MDA-MB-231 cells after 72 hrs by MTT assay. Type of data set: functional, cell-based. Conditions: MDA-MB-231, 72 h.
The test system of data set [3] is BEL-7404 tumor cell line. Kind of data set: Induction of apoptosis in human Bel7404 cells assessed as increase in procaspase 9 protein level at 60 uM at 48 hrs by Western blot analysis relative to control. The data set is classed as functional. Background: A western blot detects proteins with antibodies after separation by electrophoresis.
The test system of data set [4] is BEL-7404 tumor cell line. Kind of data set: Induction of apoptosis in human Bel7404 cells assessed as increase in cytochrome c protein level at 60 uM at 36 hrs by Western blot analysis relative to control. The data set is classed as functional.
Data set [5] relates to BEL-7404 tumor cell line. Kind of data set: Induction of apoptosis in human Bel7404 cells assessed as decrease in procaspase 3 protein level at 60 uM at 48 hrs by Western blot analysis relative to control. Type of data set: functional.
For data set [6], the system named is BEL-7404 tumor cell line. Kind of data set: Induction of apoptosis in human Bel7404 cells assessed as decrease in procaspase 3 protein level at 60 uM at 12 hrs by Western blot analysis relative to control. The data set is classed as functional.
Data set [7] concerns BEL-7404 tumor cell line. The data set is described as follows: Induction of apoptosis in human Bel7404 cells assessed as nuclear shrinking at 60 uM after 48 hrs using Hoechst staining by fluorescence microscopy. Type of data set: functional, cell-based.
Data set [8] is described as follows: Cell cycle arrest in human Bel7404 cells assessed as accumulation at G2/M phase at 40 uM after 24 hrs by PI-based flow cytometry ( Rvb = 0.11 % ). The data set is classed as functional. Conditions: BEL-7404. A general note: A flow cytometer gives signals particle by particle.
In data set [9] the test system is BEL-7404 tumor cell line. Kind of data set: Induction of apoptosis in human Bel7404 cells assessed as increase in procaspase 9 protein level at 60 uM at 24 hrs by Western blot analysis relative to control. The data set is classed as functional.
The test system of data set [10] is BEL-7404 tumor cell line. The data set is described as follows: Induction of apoptosis in human Bel7404 cells assessed as increase in Bax protein expression at 60 uM at 12 hrs by Western blot analysis relative to control. Type of data set: functional.
In data set [11] the test system is BEL-7404 tumor cell line. The data set is described as follows: Induction of apoptosis in human Bel7404 cells assessed as increase in procaspase 9 protein level at 60 uM at 36 hrs by Western blot analysis relative to control. The data set is classed as functional.
Data set [12] concerns BEL-7404 tumor cell line. The data set is described as follows: Induction of apoptosis in human Bel7404 cells assessed as decrease in procaspase 3 protein level at 60 uM at 36 hrs by Western blot analysis relative to control. Type of data set: functional.
For data set [13], the system named is BEL-7404 tumor cell line. The data set is described as follows: Induction of apoptosis in human Bel7404 cells assessed as increase in cytochrome c protein level at 60 uM at 12 hrs by Western blot analysis relative to control. The data set is classed as functional.
The test system of data set [14] is BEL-7404 tumor cell line. Kind of data set: Induction of apoptosis in human Bel7404 cells assessed as decrease in procaspase 3 protein level at 60 uM at 24 hrs by Western blot analysis relative to control. The data set is classed as functional.
In data set [15] the test system is BEL-7404 tumor cell line. The data set is described as follows: Induction of apoptosis in human Bel7404 cells assessed as membrane blebbing at 60 uM after 48 hrs using Hoechst staining by fluorescence microscopy. The data set is classed as functional, cell-based.
The subject of data set [16] is BEL-7404 tumor cell line. Kind of data set: Induction of apoptosis in human Bel7404 cells assessed as increase in Bax protein expression at 60 uM at 36 hrs by Western blot analysis relative to control. Type of data set: functional.
Data set [17] is described as follows: Cell cycle arrest in human Bel7404 cells assessed as accumulation at G0/G1 phase at 40 uM after 24 hrs by PI-based flow cytometry ( Rvb = 56.50 % ). The data set is classed as functional. Conditions: BEL-7404.
Data set [18] is described as follows: Cell cycle arrest in human Bel7404 cells assessed as accumulation at S phase at 20 uM after 24 hrs by PI-based flow cytometry ( Rvb = 43.38 % ). Type of data set: functional. Conditions: BEL-7404.
Data set [19] can be described thus: Cell cycle arrest in human Bel7404 cells assessed as decrease in G2/M phase after 24 hrs by PI-based flow cytometry. The data set is classed as functional. Conditions: BEL-7404.
The nature of data set [20]: Cell cycle arrest in human Bel7404 cells assessed as accumulation at G0/G1 phase at 60 uM after 24 hrs by PI-based flow cytometry ( Rvb = 56.50 % ). Conditions: BEL-7404. Type of data set: functional.
In data set [21] the test system is BEL-7404 tumor cell line. The data set is described as follows: Induction of apoptosis in human Bel7404 cells assessed as increase in cytochrome c protein level at 60 uM at 24 hrs by Western blot analysis relative to control. The data set is classed as functional.
The subject of data set [22] is BEL-7404 tumor cell line. The data set is described as follows: Induction of apoptosis in human Bel7404 cells assessed as apoptotic bodies at 60 uM after 48 hrs using Hoechst staining by fluorescence microscopy. Type of data set: functional, cell-based.
The subject of data set [23] is BEL-7404 tumor cell line. The data set is described as follows: Induction of apoptosis in human Bel7404 cells assessed as reduction in Bcl2 protein expression at 60 uM at 48 hrs by Western blot analysis relative to control. Type of data set: functional.
Data set [24] deals with BEL-7404 tumor cell line. The data set is described as follows: Induction of apoptosis in human Bel7404 cells assessed as reduction in Bcl2 protein expression at 60 uM at 12 hrs by Western blot analysis relative to control. Type of data set: functional.
Data set [25] is described as follows: Cell cycle arrest in human Bel7404 cells assessed as accumulation at S phase at 60 uM after 24 hrs by PI-based flow cytometry ( Rvb = 43.38 % ). Type of data set: functional. The note with it: BEL-7404.
Data set [26] can be described thus: Cell cycle arrest in human Bel7404 cells assessed as accumulation at G2/M phase at 20 uM after 24 hrs by PI-based flow cytometry ( Rvb = 0.11 % ). The data set is classed as functional. Conditions: BEL-7404.
Data set [27] in a line: Cell cycle arrest in human Bel7404 cells assessed as increase in G0/G1 phase after 24 hrs by PI-based flow cytometry. Type of data set: functional. Conditions: BEL-7404.
Data set [28] in a line: Cytotoxicity against human L02 cells at 20 to 160 uM after 72 hrs by MTT assay. The data set is classed as cell-based. The note with it: l02, 72 h.
The test system of data set [29] is BEL-7404 tumor cell line. The data set is described as follows: Induction of apoptosis in human Bel7404 cells assessed as nuclear condensation at 60 uM after 48 hrs using Hoechst staining by fluorescence microscopy. The data set is classed as functional, cell-based.
Data set [30] can be described thus: Cell cycle arrest in human Bel7404 cells assessed as decrease in S phase after 24 hrs by PI-based flow cytometry. The data set is classed as functional. The note with it: BEL-7404.
The nature of data set [31]: Cell cycle arrest in human Bel7404 cells assessed as accumulation at G0/G1 phase at 20 uM after 24 hrs by PI-based flow cytometry ( Rvb = 56.50 % ). The data set is classed as functional. Conditions: BEL-7404.
Data set [32] concerns BEL-7404 tumor cell line. Kind of data set: Induction of apoptosis in human Bel7404 cells assessed as increase in procaspase 9 protein level at 60 uM at 12 hrs by Western blot analysis relative to control. Type of data set: functional.
Data set [33] in a line: Cell cycle arrest in human Bel7404 cells assessed as accumulation at G2/M phase at 60 uM after 24 hrs by PI-based flow cytometry ( Rvb = 0.11 % ). Type of data set: functional. Conditions: BEL-7404.
Data set [34] relates to BEL-7404 tumor cell line. Kind of data set: Induction of apoptosis in human Bel7404 cells assessed as increase in Bax protein expression at 60 uM at 48 hrs by Western blot analysis relative to control. The data set is classed as functional.
A short description of data set [35]: Cell cycle arrest in human Bel7404 cells assessed as accumulation at S phase at 40 uM after 24 hrs by PI-based flow cytometry ( Rvb = 43.38 % ). The data set is classed as functional. The note with it: BEL-7404.
For data set [36], the system named is BEL-7404 tumor cell line. The data set is described as follows: Induction of apoptosis in human Bel7404 cells assessed as increase in Bax protein expression at 60 uM at 24 hrs by Western blot analysis relative to control. The data set is classed as functional.
Data set [37] relates to BEL-7404 tumor cell line. Kind of data set: Induction of apoptosis in human Bel7404 cells assessed as reduction in Bcl2 protein expression at 60 uM at 24 hrs by Western blot analysis relative to control. The data set is classed as functional.
The subject of data set [38] is BEL-7404 tumor cell line. The data set is described as follows: Induction of apoptosis in human Bel7404 cells assessed as increase in cytochrome c protein level at 60 uM at 48 hrs by Western blot analysis relative to control. Type of data set: functional.
Data set [39] deals with BEL-7404 tumor cell line. The data set is described as follows: Induction of apoptosis in human Bel7404 cells assessed as reduction in Bcl2 protein expression at 60 uM at 36 hrs by Western blot analysis relative to control. The data set is classed as functional.

Molecules are shown by their SMILES. Activity calls are given as the source filed them. No cut-off for these calls is given here.

As to `CC1(C)CC[C@]2(C(=O)O)CC[C@]3(C)C(=CC[C@@H]4[C@@]5(C)Cc6nonc6C(C)(C)[C@@H]5CC[C@]43C)[C@@H]2C1`, the IC50 was 49.7 µM in the data set with K562, 30.9 µM in data set [1], 46.1 µM in data set [2] and 53.6 µM in the data set on MDA-MB-231.
The corresponding values for `CC1(C)CC[C@]2(C(=O)O)CC[C@]3(C)C(=CC[C@@H]4[C@@]5(C)CC[C@H](O)C(C)(C)[C@@H]5CC[C@]43C)[C@@H]2C1` [OLEANOLIC_ACID] are 58.1 µM, 57.9 µM, 54.6 µM and 67.9 µM.
Turning to `CC1(C)CC[C@]2(C(=O)O)CC[C@]3(C)C(=CC[C@@H]4[C@@]5(C)Cc6cnoc6C(C)(C)[C@@H]5CC[C@]43C)[C@@H]2C1`, the IC50 with K562 came out at 11.4 µM; in data set [1], 36 µM; in data set [2], 42.1 µM; in the data set with MDA-MB-231, 53.7 µM.
For `CC(=O)n1nc2c(n1)C(C)(C)[C@@H]1CC[C@]3(C)[C@H](CC=C4[C@@H]5CC(C)(C)CC[C@]5(C(=O)O)CC[C@]43C)[C@@]1(C)C2`, in that order: 67.6 µM, 45.1 µM, 76.6 µM and 61.7 µM.
For `CC1(C)CC[C@]2(C(=O)O)CC[C@]3(C)C(=CC[C@@H]4[C@@]5(C)Cc6cnc(N)nc6C(C)(C)[C@@H]5CC[C@]43C)[C@@H]2C1`, the “fold change (FC)” value in the data set with BEL-7404 tumor cell line [3] turned out to be 0.1; in the data set with BEL-7404 tumor cell line [4] it was 2.7; with BEL-7404 tumor cell line [5], 0.1; with BEL-7404 tumor cell line [6], 0.8; in the data set on BEL-7404 tumor cell line [9], 0.6; in the data set with BEL-7404 tumor cell line [10], 1.5. The “fold change (FC)” value in the data set on BEL-7404 tumor cell line [11] came to 0.2; in the data set on BEL-7404 tumor cell line [12], 0.4; in the data set with BEL-7404 tumor cell line [13], 1.3; in the data set on BEL-7404 tumor cell line [14], 0.6; in the data set with BEL-7404 tumor cell line [16], 7.6; with BEL-7404 tumor cell line [21], 2.6. Besides, the “fold change (FC)” value is given as 0.4 in the data set on BEL-7404 tumor cell line [23]; 1 with BEL-7404 tumor cell line [24]; 0.7 in the data set with BEL-7404 tumor cell line [32]; 7.7 with BEL-7404 tumor cell line [34]; 1.5 in the data set on BEL-7404 tumor cell line [36]; 0.5 in the data set with BEL-7404 tumor cell line [37]. Further, the “fold change (FC)” value with BEL-7404 tumor cell line [38] is reported as 7; with BEL-7404 tumor cell line [39], 0.4. Moreover, the result with BEL-7404 tumor cell line [7], with BEL-7404 tumor cell line [15], with BEL-7404 tumor cell line [22] and in the data set with BEL-7404 tumor cell line [29] was Active. The Activity is 0% in data set [8]; 62.9% in data set [17]; 41.6% in data set [18]; “Dose-dependent effect” in data set [19]; 73% in [20]; 27% in [25]. In addition, the Activity was 0% in [26]; “Dose-dependent effect” in data set [27]; “Non-toxic” in [28]; “Dose-dependent effect” in data set [30]; 58.4% in data set [31]; 0% in data set [33]. Further, the Activity in data set [35] came to 37.1%. The IC50 was 39.3 µM with K562, 35.1 µM in data set [1], 42.6 µM in data set [2] and 44.8 µM in the data set with MDA-MB-231.
